Strand notation (5' to 3'): a small letter for the sugar, then the base; units joined by * are phosphorothioate-linked, units joined directly phosphodiester-linked; [ ] holds rarer units or linkages, { } end groups; capitals alone tell only the bases. e = 2'-O-(2-methoxyethyl) (MOE); [5mC] = 5-methylcytosine; d = 2'-deoxy (DNA)

The test system of data set [1] is human PKK mRNA. Kind of data set: Dose-dependent antisense inhibition of human PKK in HepaRG cells, 0.12-10.00 uM (Example 4). Type of data set: cell-based. As to conditions: electroporation, ~16 h. Put shortly: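 HepaRG cells (20,000/well) electroporated with antisense oligonucleotide at 0.12, 0.37, 1.11, 3.33 and 10.00 μM, ~16 h treatment. PKK mRNA by qRT-PCR (primer probe set RTS3454), normalised to RIBOGREEN total RNA. % inhibition versus untreated cells; IC50 derived.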

The test system of data set [2] is human PKK mRNA. Nature of the data set: Antisense inhibition of human PKK mRNA in HepaRG cells, 3,000 nM (Example 1). The data set is classed as cell-based. As to conditions: Table 4; HepaRG cells, electroporation with 3,000 nM antisense oligonucleotide, approx. 24 hours; PKK mRNA by RT-PCR (RTS3454), relative to untreated control cells. The gist of the method: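 HepaRG cells, 20,000 per well, were electroporated with 3,000 nM 5-10-5 MOE gapmer (phosphorothioate, 5-methylcytosine). After about 24 h, PKK mRNA was measured by qRT-PCR with primer probe set RTS3454 and normalised to RIBOGREEN total RNA. Values are percent inhibition versus untreated cells.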

The subject of a further data set is mouse PKK mRNA. Nature of the data set: Antisense inhibition of murine PKK mRNA in mouse primary hepatocytes (Example 9). The data set is classed as cell-based. To be noted: Cytofectin; for % inhibition of mouse PKK mRNA levels: approx. 24 hours. The procedure:
Antisense oligonucleotides targeting a murine PKK nucleic acid were designed and tested for their effects on PKK mRNA in vitro. Cultured mouse primary hepatocytes at a density of 10,000 cells per well were transfected using Cytofectin reagent with 12.5 nM, 25.0 nM, 50.0 nM, 100.0 nM, and 200.0 nM of antisense oligonucleotide. After a treatment period of approximately 24 hours, RNA was isolated from the cells and mouse PKK mRNA levels were measured by quantitative real-time PCR using the murine primer probe set RTS3313 (forward sequence […], designated herein as SEQ ID NO: 2228; reverse sequence […], designated herein as SEQ ID NO: 2229; probe sequence […], designated herein as SEQ ID NO: 2230). PKK mRNA levels were adjusted according to total RNA content, as measured by RIBOGREEN.
The chimeric antisense oligonucleotides were designed as 5-10-5 MOE gapmers. The gapmers are 20 nucleotides in length, wherein the central gap segment is comprised of ten 2′-deoxynucleosides and is flanked on both sides (in the 5′ and 3′ directions) by wings comprising 5 nucleosides each. Each nucleoside in the 5′ wing segment and each nucleoside in the 3′ wing segment has a 2′-O-methoxyethyl modification. The internucleoside linkages throughout each gapmer are phosphorothioate linkages. All cytosine residues throughout each gapmer are 5-methylcytosines.
ISIS 482584 is targeted to SEQ ID NO: 11 (GENBANK Accession No. NM_008455.2) and has a target start site of 1586 and a target stop site of 1605. “Target start site” indicates the 5′-most nucleotide to which the gapmer is targeted. “Target stop site” indicates the 3′-most nucleotide to which the gapmer is targeted.

The subject of the next data set is PKK protein. Kind of data set: Plasma PKK protein levels in human KLKB1 transgenic mice (Example 7). Type of data set: in vivo. As to conditions: transgenic mice. Put shortly:
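Human KLKB1 transgenic mice dosed subcutaneously twice weekly for 3 weeks with antisense oligonucleotides at 2.5, 5.0, 10 or 20 mg/kg/week. Plasma collected 48 hours after the final dose; PKK protein expressed as percent inhibition relative to PBS-treated controls.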

On to “531231 (eT*eA*eT*e[5mC]*eA*d[5mC]*dT*dG*dT*dA*d[5mC]*dT*dA*dG*dT*eT*eT*e[5mC]*e[5mC]*eT) [compound 531231]”, for which the “percent inhibition of PKK at 0.12 μM” value was 23% in the data set with human PKK mRNA [1] (Table 32, 0.12 μM) and 18% in the data set on human PKK mRNA [1] (Table 33, 0.12 μM). For the same substance, the “percent inhibition of PKK at 0.37 μM” value in the data set with human PKK mRNA [1] (Table 32, 0.37 μM) is reported as 30%; in the data set with human PKK mRNA [1] (Table 33, 0.37 μM) it was 0%. In addition, the “percent inhibition of PKK at 1.11 μM” value with human PKK mRNA [1] (Table 32, 1.11 μM) is listed as 76%; in the data set with human PKK mRNA [1] (Table 33, 1.11 μM), 36%. Besides, the “percent inhibition of PKK at 3.33 μM” value with human PKK mRNA [1] (Table 32, 3.33 μM) stood at 89%; in the data set with human PKK mRNA [1] (Table 33, 3.33 μM), 76%. The “percent inhibition of PKK at 10.00 μM” value stood at 94% in the data set on human PKK mRNA [1] (Table 32, 10.00 μM) and 84% in the data set on human PKK mRNA [1] (Table 33, 10.00 μM). Further, the IC50 with human PKK mRNA [1] (Table 32, PKK mRNA) stood at 600 nM; in the data set with human PKK mRNA [1] (Table 33, PKK mRNA) it was 2000 nM. The “% inhibition” value in the data set with human PKK mRNA [2] was 94%.
On to “ISIS 482584: 5-10-5 MOE gapmer targeting murine PKK, GGCATATTGGTTTTTGGAAT; SEQ ID NO: 2244 (antisense eG*eG*e[5mC]*eA*eT*dA*dT*dT*dG*dG*dT*dT*dT*dT*dT*eG*eG*eA*eA*eT)”, for which the “% inhibition of mouse PKK mRNA levels” value in the data set with mouse PKK mRNA (12.5 nM) is reported as 0%; in the data set on mouse PKK mRNA (25.0 nM) it was 47%; in the data set on mouse PKK mRNA (50.0 nM), 27%; with mouse PKK mRNA (100.0 nM), 60%; in the data set with mouse PKK mRNA (200.0 nM), 82%. For the same substance, the IC50 with mouse PKK mRNA (12.5-200.0 nM, ~24 h, read-out: half maximal inhibitory concentration (IC50)) worked out at 84 nM.
“Tes Ges mCes Aes Aes Gds Tds mCds Tds mCds Tds Tds Gds Gds mCds Aes Aes Aes mCes Ae [ISIS 546254]”: the “human PKK protein inhibition” value is listed as 0% with PKK protein (2.5 mg/kg/week s.c. twice a week for 3 weeks), 36% with PKK protein (5.0 mg/kg/week s.c. twice a week for 3 weeks), 51% in the data set with PKK protein (10 mg/kg/week s.c. twice a week for 3 weeks) and 76% in the data set on PKK protein (20 mg/kg/week s.c. twice a week for 3 weeks).
